Test results published in patent publication US20110034551A1, “METHODS OF INCREASING SARCOSINE LEVELS FOR TREATING SCHIZOPHRENIA” (BG MEDICINE, INC., priority 2007, published 2011).

How the values were obtained:
plasma sarcosine = test: 28-day oral dosing study in rats, plasma sarcosine abundance by Polar LC/MS and GC/MS; type: in vivo, rat; conditions: 300 mg/kg daily oral, end of 28-day treatment
Text: Fenofibrate (Sigma F-6020, Lot. 064K1584) and MPC-1 (Mitsubishi Pharma Corporation, Lot. F) were used in this study. These test substances were stored at room temperature.
Seventy-three male Crj:CD(SD)IGS rats (4.5 weeks old) were quarantined and acclimated for seven days after receipt. Two days before the initiation of dosing (Day −2), rats which had no abnormalities in clinical observation and body weight during the quarantine and acclimation period were selected and assigned to 5 groups using the stratified-by-weight randomization method to yield approximately the same mean body weights amongst the study groups.
The rats were dosed by oral gavage using a disposable stomach tube connecting to a syringe, at the dose volume of 5 mL/kg. The dosing was conducted once daily for 28 days. A control group was dosed with the vehicle only. Individual doses were calculated based on the most recently recorded body weights.
Preparation of dosing suspensions was as follows. The specified amount of test substance for each dose level was weighed and crushed with an agate mortar and a pestle. […]
Based on the total number of samples, the batches of samples were set up according to a batching scheme. Each sample was analyzed in duplicate. […] Each batch is analyzed in one analytical run. […]
All compounds eluting from the GC/MS column were detected in full scan mode. […]

glycine transport = conditions: other studies; read-out: IC50 for inhibition of glycine transport; cited from earlier work
[1] = target: T1, type 1 glycine transporter, GLYT1 (Rattus norvegicus, UniProt P28572); conditions: rat brain aggregates; Atkinson, et al. 2001; read-out: IC50 for inhibition of glycine transport; cited from earlier work
T1 construct: glycine transport in rat brain aggregates; host or cells: rat brain aggregates (endogenous protein)
T1 sequence (P28572 1-638): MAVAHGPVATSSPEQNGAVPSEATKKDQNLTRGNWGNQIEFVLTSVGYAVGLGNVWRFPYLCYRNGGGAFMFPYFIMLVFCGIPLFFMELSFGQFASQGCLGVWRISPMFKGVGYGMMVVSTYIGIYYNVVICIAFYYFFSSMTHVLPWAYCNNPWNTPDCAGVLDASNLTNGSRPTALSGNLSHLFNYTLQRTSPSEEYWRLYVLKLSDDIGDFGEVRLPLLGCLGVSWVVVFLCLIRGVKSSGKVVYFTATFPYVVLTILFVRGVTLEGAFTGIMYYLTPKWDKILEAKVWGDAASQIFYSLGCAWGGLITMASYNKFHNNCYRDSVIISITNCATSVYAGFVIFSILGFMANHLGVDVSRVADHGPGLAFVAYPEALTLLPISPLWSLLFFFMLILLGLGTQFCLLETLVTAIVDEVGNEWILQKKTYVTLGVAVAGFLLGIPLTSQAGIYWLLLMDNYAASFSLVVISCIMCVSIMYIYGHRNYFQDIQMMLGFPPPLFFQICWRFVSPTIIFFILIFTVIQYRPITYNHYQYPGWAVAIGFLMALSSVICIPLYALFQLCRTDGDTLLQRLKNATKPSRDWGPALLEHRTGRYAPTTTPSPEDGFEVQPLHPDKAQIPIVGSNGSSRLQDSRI

schizophrenia = conditions: 2 g/day as add-on therapy to certain antipsychotics (but not clozapine), schizophrenia patients; cited from earlier work

| SMILES | median fold change in plasma sarcosine abundance relative to vehicle (plasma sarcosine; GC/MS platform) | median fold change in plasma sarcosine abundance relative to vehicle (plasma sarcosine; Polar LC/MS platform) | IC50 (glycine transport) | IC50 [1] | effect on symptoms of schizophrenia (schizophrenia) |
| --- | --- | --- | --- | --- | --- |
| CC(C)OC(=O)C(C)(C)Oc1ccc(C(=O)c2ccc(Cl)cc2)cc1 [fenofibrate] | 3.74 | 4.25 | – | – | – |
| CNCC(=O)O [sarcosine, N-methylglycine] | – | – | ~100 µM | 13 µM | additional reductions in both positive and negative symptomatology |
